Experimental data from patent publication US20080161232A1, “C5a Receptor Antagonist” (JERINI AG, priority 2005, published 2008).
Like-named read-outs stand apart in the source and are kept apart here. Starred links: 1 amine or outer side, 2 acyl side, 3 side chain; linkers in the order of their positions; H or OH if unused. Positions of bridges follow the written chain, without caps; N, C: chain ends. Non-standard residues stand in square brackets, D forms with d. Residues, ends and D or L forms follow the SMILES beside them. ξ: configuration not given here. *: point of attachment. Phe(3,4,5-F3) = N[C@@H](Cc1cc(F)c(F)c(F)c1)C(=O)O; Phe(3-Cl) = N[C@@H](Cc1cccc(Cl)c1)C(=O)O; NMe2Phe = CN(C)[C@@H](Cc1ccccc1)C(=O)*; Phe(4-F) = N[C@@H](Cc1ccc(F)cc1)C(=O)O; 1Nal = N[C@@H](Cc1cccc2ccccc12)C(=O)O; His(τ-Me) = Cn1cnc(C[C@H](N)C(=O)O)c1; Bta = N[C@@H](Cc1csc2ccccc12)C(=O)O; Morpholinoacetyl = O=C(CN1CCOCC1)*; cisHyp = O=C(O)[C@@H]1C[C@H](O)CN1; Hyp = O=C(O)[C@@H]1C[C@@H](O)CN1; d(hLeu) = CC(C)CC[C@@H](N)C(=O)O; hArg = N=C(N)NCCCC[C@H](N)C(=O)O; ξNip = O=C(C1CCCN([*:1])C1)[*:2]; 4Pal = N[C@@H](Cc1ccncc1)C(=O)O; 2Thi = N[C@@H](Cc1cccs1)C(=O)O; Cit = NC(=O)NCCC[C@H](N)C(=O)O; dCha = N[C@H](CC1CCCCC1)C(=O)O; Nicotinoyl = O=C(c1cccnc1)*; Morpholide = C1CN(*)CCO1; Nle = CCCC[C@H](N)C(=O)O; Orn = NCCC[C@H](N)C(=O)O; Pra = C#CC[C@H](N)C(=O)O; Aze = O=C(O)[C@@H]1CCN1; CO = O=C([*:1])[*:2]; Ms = CS(=O)(=O)*; tBu = CC(C)(C)*

Biological target: T1, human C5aR(CD88) (Homo sapiens, UniProt P21730)
T1 construct: expressed in transfected cells; host or cells: rat basophilic leukemia cells (RBL)
T1 sequence (P21730 1-350): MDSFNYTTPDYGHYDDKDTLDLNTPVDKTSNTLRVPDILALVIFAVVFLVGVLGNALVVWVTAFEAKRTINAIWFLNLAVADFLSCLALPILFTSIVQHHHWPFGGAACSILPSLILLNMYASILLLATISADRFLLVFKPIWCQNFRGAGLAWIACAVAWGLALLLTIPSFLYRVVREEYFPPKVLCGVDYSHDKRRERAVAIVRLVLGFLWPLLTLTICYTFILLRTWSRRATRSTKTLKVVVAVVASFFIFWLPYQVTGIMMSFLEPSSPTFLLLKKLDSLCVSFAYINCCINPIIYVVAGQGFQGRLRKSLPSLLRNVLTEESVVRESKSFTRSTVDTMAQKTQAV
Test: Determination of the IC50 value in an enzyme release assay (functional assay, antagonistic activity)
Type: cell-based
Settings: for inhibitory activity (in words): functional assay of example 11, noteworthy = IC50 less than 200 nM

[1] = antagonistic activity, IC50 group in enzyme release assay, RBL cells expressing human C5aR(CD88), read-out: activity (group)

Row | IC50 [1] | Compound | further results
1 | 50 to 200 nM | O=C(CN1CCOCC1)N[C@@H](Cc1ccccc1)C(=O)N[C@H]1CCCNC(=O)[C@H](Cc2ccccc2)NC(=O)[C@H](Cc2c[nH]c3ccccc23)NC(=O)[C@@H](CC2CCCCC2)NC(=O)[C@@H]2C[C@@H](O)CN2C1=O [Compound 335, Fha-Phe-[Orn-Hyp-cha-Trp-Phe]] (Morpholinoacetyl-F[Orn][Hyp][dCha]WF; lactam 2-C) | 
2 | 50 to 200 nM | CC(=O)N[C@@H](Cc1c[nH]cn1)C(=O)N[C@@H](Cc1ccccc1)C(=O)N[C@@H](CCCN)C(=O)N1CC[C@H]1C(=O)N[C@H](CC1CCCCC1)C(=O)N[C@@H](Cc1csc2ccccc12)C(=O)N[C@@H](Cc1ccccc1)C(N)=O [Compound 138, Ac-His-Phe-Orn-Aze-cha-Bta-Phe-NH2] (Ac-HF[Orn][Aze][dCha][Bta]F-NH2) | 
3 | 10 to 20 nM | CC(=O)N[C@@H](Cc1ccccc1)C(=O)N[C@@H](CCCCNC(=N)N)C(=O)N1CC[C@H]1C(=O)N[C@H](CC1CCCCC1)C(=O)N[C@@H](Cc1csc2ccccc12)C(=O)N[C@@H](Cc1ccccc1)C(N)=O [Compound 229, Ac-Phe-Har-Aze-cha-Bta-Phe-NH2] (Ac-F[hArg][Aze][dCha][Bta]F-NH2) | 
4 | 50 to 200 nM | CC(=O)N[C@@H](Cc1ccccc1)C(=O)N[C@@H](CCCN)C(=O)N1CCC[C@H]1C(=O)N[C@H](CCC(C)C)C(=O)N[C@@H](Cc1cccc(Cl)c1)C(=O)N[C@@H](Cc1ccc(F)cc1)C(N)=O [Compound 290, Ac-Phe-Orn-Pro-hle-Mcf-Pff-NH2] (Ac-F[Orn]P[d(hLeu)][Phe(3-Cl)][Phe(4-F)]-NH2) | 
5 | 20 to 50 nM | CCCC[C@@H]1NC(=O)[C@H](Cc2c[nH]c3ccccc23)NC(=O)[C@@H](CCC(C)C)NC(=O)[C@H](CO)NC(=O)[C@@H](NC(=O)[C@@H](N)Cc2ccccc2)CCCNC1=O [Compound 390, H-Phe-[Orn-Ser-hle-Trp-Nle]] (H-F[Orn]S[d(hLeu)]W[Nle]; lactam 2-C) | 
6 | 20 to 50 nM | CC(=O)N[C@@H](Cc1ccccc1)C(=O)N[C@H]1CCCNC(=O)[C@H](Cc2cn(C)cn2)NC(=O)[C@H](Cc2c[nH]c3ccccc23)NC(=O)[C@@H](CC2CCCCC2)NC(=O)[C@@H]2CCCN2C1=O [Compound 192, Ac-Phe-[Orn-Pro-cha-Trp-Ecr]] (Ac-F[Orn]P[dCha]W[His(τ-Me)]; lactam 2-C) | 
7 | 50 to 200 nM | CCCC[C@@H]1NC(=O)[C@H](Cc2c[nH]c3ccccc23)NC(=O)[C@@H](CCC(C)C)NC(=O)[C@H](CO)NC(=O)[C@@H](NC(=O)[C@H](Cc2ccccc2)NC(C)=O)CCCNC1=O [Compound 202, Ac-Phe-[Orn-Ser-hle-Trp-Nle]] (Ac-F[Orn]S[d(hLeu)]W[Nle]; lactam 2-C) | 
8 | 20 to 50 nM | CS(=O)(=O)N[C@@H](Cc1ccccc1)C(=O)N[C@@H](CCCN)C(=O)N1CC[C@H]1C(=O)N[C@H](CC1CCCCC1)C(=O)N[C@@H](Cc1csc2ccccc12)C(=O)N[C@@H](Cc1ccccc1)C(N)=O [Compound 96, CH3—SO2-Phe-Orn-Aze-cha-Bta-Phe-NH2] (Ms-F[Orn][Aze][dCha][Bta]F-NH2) | 
9 | 50 to 200 nM | CC(=O)N[C@@H](Cc1ccccc1)C(=O)N[C@@H](CCCN)C(=O)N1CCC[C@H]1C(=O)N[C@H](CC1CCCCC1)C(=O)N[C@@H](Cc1c[nH]c2ccccc12)C(=O)N[C@@H](Cc1cccs1)C(N)=O [Compound 80, Ac-Phe-Orn-Pro-cha-Trp-Thi-NH2] (Ac-F[Orn]P[dCha]W[2Thi]-NH2) | 
10 | 50 to 200 nM | CC(=O)N[C@@H](Cc1ccccc1)C(=O)N[C@@H](CCCN)C(=O)N1C[C@@H](O)C[C@H]1C(=O)N[C@H](CCC(C)C)C(=O)N[C@@H](Cc1ccc(F)cc1)C(=O)N[C@@H](Cc1ccccc1)C(N)=O [Compound 236, Ac-Phe-Orn-Chy-hle-Pff-Phe-NH2] (Ac-F[Orn][cisHyp][d(hLeu)][Phe(4-F)]F-NH2) | 
11 | 50 to 200 nM | CN(C)[C@@H](Cc1ccccc1)C(=O)N[C@@H](CCCN)C(=O)N1CCC[C@H]1C(=O)N[C@H](CC1CCCCC1)C(=O)N[C@@H](Cc1c[nH]c2ccccc12)C(=O)N[C@@H](Cc1ccccc1)C(N)=O [Compound 69, Me2-Phe-Orn-Pro-cha-Trp-Phe-NH2] (NMe2Phe-[Orn]P[dCha]WF-NH2) | 
12 | 50 to 200 nM | CC(=O)N[C@@H](Cc1ccccc1)C(=O)N[C@H]1CCCNC(=O)[C@H](Cc2cccc3ccccc23)NC(=O)[C@H](Cc2c[nH]c3ccccc23)NC(=O)[C@@H](CC2CCCCC2)NC(=O)[C@@H]2CCCN2C1=O [Compound 188, Ac-Phe-[Orn-Pro-cha-Trp-1Ni]] (Ac-F[Orn]P[dCha]W[1Nal]; lactam 2-C) | 
13 | 200 to 2000 nM | CC(=O)N[C@@H](Cc1ccccc1)C(=O)N[C@@H](CO)C(=O)N1CCC[C@H]1C(=O)N[C@H](CC1CCCCC1)C(=O)N[C@@H](Cc1c[nH]c2ccccc12)C(=O)N[C@@H](Cc1ccccc1)C(N)=O [Compound 90, Ac-Phe-Ser-Pro-cha-Trp-Phe-NH2] (Ac-FSP[dCha]WF-NH2) | 
14 |  | CC(=O)N[C@@H](Cc1ccccc1)C(=O)N[C@@H](CCCN)C(=O)N1CCC[C@H]1C(=O)N[C@H](CCC(C)C)C(=O)N[C@@H](Cc1cccc(Cl)c1)C(=O)N[C@@H](Cc1ccccc1)C(N)=O [Compound 291, Ac-Phe-Orn-Pro-hle-Mcf-Phe-NH2] (Ac-F[Orn]P[d(hLeu)][Phe(3-Cl)]F-NH2) | IC50 (activity (group)): 50 to 200 nM
15 | 50 to 200 nM | CCCC[C@@H]1NC(=O)[C@H](Cc2c[nH]c3ccccc23)NC(=O)[C@@H](CC2CCCCC2)NC(=O)[C@@H]2CCCN2C(=O)[C@@H](NC(=O)[C@H](Cc2ccccc2)NC(=O)N2CCOCC2)CCCNC1=O [Compound 330, Fbo-Phe-[Orn-Pro-cha-Trp-Nle]] ({Morpholide-CO}-F[Orn]P[dCha]W[Nle]; lactam 2-C) | 
16 | 20 to 50 nM | CC(=O)N[C@@H](Cc1ccccc1)C(=O)N[C@@H](Cc1csc2ccccc12)C(=O)N1CC[C@H]1C(=O)N[C@H](CC1CCCCC1)C(=O)N[C@@H](Cc1csc2ccccc12)C(=O)N[C@@H](Cc1ccccc1)C(N)=O [Compound 112, Ac-Phe-Bta-Aze-cha-Bta-Phe-NH2] (Ac-F[Bta][Aze][dCha][Bta]F-NH2) | 
17 |  | CC(=O)N[C@@H](Cc1ccccc1)C(=O)N[C@H]1CCCNC(=O)[C@H](Cc2ccncc2)NC(=O)[C@H](Cc2c[nH]c3ccccc23)NC(=O)[C@@H](CC2CCCCC2)NC(=O)[C@@H]2CCCN2C1=O [Ac-Phe-[Orn-Pro-cha-Trp-Ppa]] (Ac-F[Orn]P[dCha]W[4Pal]; lactam 2-C) | inhibitory activity (in words): noteworthy inhibitory activity
18 | 5 to 10 nM | C#CC[C@@H]1NC(=O)[C@H](Cc2c[nH]c3ccccc23)NC(=O)[C@@H](CC2CCCCC2)NC(=O)[C@@H]2CCCN2C(=O)[C@@H](NC(=O)[C@H](Cc2ccccc2)NC(C)=O)CCCNC1=O [Compound 35, Ac-Phe-[Orn-Pro-cha-Trp-Eag]] (Ac-F[Orn]P[dCha]W[Pra]; lactam 2-C) | inhibitory activity (in words): without significant loss of activity; inhibitory activity (in words) (listed as Ac-Phe-[Orn-Pro-cha-Trp-Eag]): noteworthy inhibitory activity
19 | > 2000 nM | CC(=O)N[C@@H](Cc1ccccc1)C(=O)N[C@H]1CCCNC(=O)[C@H](CCCCN)NC(=O)[C@H](Cc2c[nH]c3ccccc23)NC(=O)[C@@H](CC2CCCCC2)NC(=O)[C@@H]2CCCN2C1=O [Compound 22] (Ac-F[Orn]P[dCha]WK; lactam 2-C (inferred)) | 

Row | Compound | IC50 [1] | further results
20 | CC(=O)N[C@@H](Cc1ccccc1)C(=O)N[C@@H](CCCN)C(=O)N1CCC[C@H]1C(=O)N[C@H](CSC(C)(C)C)C(=O)N[C@@H](Cc1ccc(F)cc1)C(=O)N[C@@H](Cc1ccccc1)C(N)=O [Compound 266, Ac-Phe-Orn-Pro-ctb-Pff-Phe-NH2] (Ac-F[Orn]P[dC](tBu)[Phe(4-F)]F-NH2) | 20 to 50 nM | 
21 | CC(=O)N[C@@H](Cc1ccccc1)C(=O)N[C@@H](CCCN)C(=O)N1CCC[C@H]1C(=O)N[C@H](CCC(C)C)C(=O)N[C@@H](Cc1csc2ccccc12)C(=O)N[C@@H](Cc1ccccc1)C(N)=O [Compound 280, Ac-Phe-Orn-Pro-hle-Bta-Phe-NH2] (Ac-F[Orn]P[d(hLeu)][Bta]F-NH2) | 20 to 50 nM | 
22 | CC(C)CC[C@@H](NC(=O)[C@@H]1CCCN1C(=O)[C@H](CCCNC(N)=O)NC(=O)[C@H](Cc1ccccc1)NC(=O)c1cccnc1)C(=O)N[C@@H](Cc1csc2ccccc12)C(=O)N[C@@H](Cc1ccccc1)C(N)=O [Compound 329, Fbn-Phe-Cit-Pro-hle-Bta-Phe-NH2] (Nicotinoyl-F[Cit]P[d(hLeu)][Bta]F-NH2) | 50 to 200 nM | 
23 | CC(=O)N[C@@H](Cc1ccccc1)C(=O)N[C@@H](CCCN)C(=O)N1CCC[C@H]1C(=O)N[C@H](CCC(C)C)C(=O)N[C@@H](Cc1cc(F)c(F)c(F)c1)C(=O)N[C@@H](Cc1ccccc1)C(N)=O [Compound 305, Ac-Phe-Orn-Pro-hle-Tff-Phe-NH2] (Ac-F[Orn]P[d(hLeu)][Phe(3,4,5-F3)]F-NH2) | 50 to 200 nM | 
24 | CC(=O)N[C@@H](Cc1ccc(F)cc1)C(=O)N[C@@H](CCCN)C(=O)N1CCC[C@H]1C(=O)N[C@H](CCC(C)C)C(=O)N[C@@H](Cc1csc2ccccc12)C(=O)N[C@@H](Cc1ccccc1)C(N)=O [Compound 170, Ac-Pff-Orn-Pro-hle-Bta-Phe-NH2] (Ac-[Phe(4-F)][Orn]P[d(hLeu)][Bta]F-NH2) | 50 to 200 nM | 
25 | O=C(N[C@@H](Cc1ccccc1)C(=O)N[C@H]1CCCNC(=O)[C@H](Cc2ccccc2)NC(=O)[C@H](Cc2c[nH]c3ccccc23)NC(=O)[C@@H](CC2CCCCC2)NC(=O)[C@@H]2C[C@@H](O)CN2C1=O)C1CCCNC1 (stereo partly drawn) [Compound 332, Fci-[Phe-Orn-Hyp-cha-Trp-Phe]] (ξNip-F[Orn][Hyp][dCha]WF; lactam 2-C) | 50 to 200 nM | 
